{"source": "patent US20250002473A1", "about": "“QUINOXALINE DERIVED SULFONAMIDES WITH EGFR DEGRADATION ACTIVITIES AND THEIR USES THEREOF” (Accutar Biotechnology Inc., priority 2023, published 2025)", "assay_type_in_all_cases": "cell-based", "key": {"[1]": {"biological_target": "T1, A431 (EGFR_WT) (Homo sapiens, UniProt P00533)", "T1 construct": "endogenous in cells; host or cells: A431, NCI-H2073, NCI-H292", "T1 sequence (P00533 25-1210)": "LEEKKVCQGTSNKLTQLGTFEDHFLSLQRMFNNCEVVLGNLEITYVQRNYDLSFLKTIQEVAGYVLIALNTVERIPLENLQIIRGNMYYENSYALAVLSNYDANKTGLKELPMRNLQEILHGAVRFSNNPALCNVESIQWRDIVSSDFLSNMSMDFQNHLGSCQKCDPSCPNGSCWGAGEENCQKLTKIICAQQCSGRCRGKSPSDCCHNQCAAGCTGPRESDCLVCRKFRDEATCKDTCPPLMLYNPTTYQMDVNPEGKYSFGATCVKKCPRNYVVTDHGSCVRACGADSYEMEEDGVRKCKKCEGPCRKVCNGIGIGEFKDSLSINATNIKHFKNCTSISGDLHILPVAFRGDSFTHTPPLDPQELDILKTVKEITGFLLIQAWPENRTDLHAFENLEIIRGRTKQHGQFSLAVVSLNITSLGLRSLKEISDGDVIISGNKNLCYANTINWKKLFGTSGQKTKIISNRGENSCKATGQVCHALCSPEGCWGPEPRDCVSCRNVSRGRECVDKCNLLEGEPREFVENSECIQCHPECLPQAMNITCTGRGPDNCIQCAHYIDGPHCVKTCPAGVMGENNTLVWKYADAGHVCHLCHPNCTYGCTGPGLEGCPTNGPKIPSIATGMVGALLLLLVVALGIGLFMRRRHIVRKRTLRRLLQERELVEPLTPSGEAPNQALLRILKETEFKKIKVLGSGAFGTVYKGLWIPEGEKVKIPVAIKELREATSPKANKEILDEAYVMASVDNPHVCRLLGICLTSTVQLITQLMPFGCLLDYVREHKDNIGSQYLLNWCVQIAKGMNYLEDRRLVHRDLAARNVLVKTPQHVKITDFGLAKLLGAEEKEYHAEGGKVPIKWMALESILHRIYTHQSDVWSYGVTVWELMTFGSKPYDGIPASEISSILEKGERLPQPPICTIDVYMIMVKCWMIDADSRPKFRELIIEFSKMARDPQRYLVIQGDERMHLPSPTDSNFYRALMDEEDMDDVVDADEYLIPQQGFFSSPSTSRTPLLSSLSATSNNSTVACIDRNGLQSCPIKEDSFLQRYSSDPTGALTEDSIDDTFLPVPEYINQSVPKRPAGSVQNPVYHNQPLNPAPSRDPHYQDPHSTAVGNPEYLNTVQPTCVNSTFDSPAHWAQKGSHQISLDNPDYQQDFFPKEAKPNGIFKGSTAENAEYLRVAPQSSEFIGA", "experiment": "EGFR degradation assay (western blot), A431 cells", "procedure,_shortened": "(§1)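 Cells seeded overnight, then exposed to compounds for 24 h; lysates run on western blot, EGFR probed with tubulin loading control and fluorescent secondary detection. DC50 = concentration giving 50% EGFR degradation.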"}, "[2]": {"tested_on": "BaF3_DTC (EGFR_Exon19del/T790M/C797S)", "experiment": "EGFR degradation assay (western blot), BaF3_DTC cells", "procedure,_shortened": "as §1"}, "[3]": {"biological_target": "T2, BaF3_SVD (EGFR_D770insSVD) (Homo sapiens, UniProt P00533, INS770SVD)", "T2 construct": "expressed in transfected cells; host or cells: Ba/F3 (engineered)", "T2 sequence (P00533 with tags, fused parts or gaps INS770SVD)": "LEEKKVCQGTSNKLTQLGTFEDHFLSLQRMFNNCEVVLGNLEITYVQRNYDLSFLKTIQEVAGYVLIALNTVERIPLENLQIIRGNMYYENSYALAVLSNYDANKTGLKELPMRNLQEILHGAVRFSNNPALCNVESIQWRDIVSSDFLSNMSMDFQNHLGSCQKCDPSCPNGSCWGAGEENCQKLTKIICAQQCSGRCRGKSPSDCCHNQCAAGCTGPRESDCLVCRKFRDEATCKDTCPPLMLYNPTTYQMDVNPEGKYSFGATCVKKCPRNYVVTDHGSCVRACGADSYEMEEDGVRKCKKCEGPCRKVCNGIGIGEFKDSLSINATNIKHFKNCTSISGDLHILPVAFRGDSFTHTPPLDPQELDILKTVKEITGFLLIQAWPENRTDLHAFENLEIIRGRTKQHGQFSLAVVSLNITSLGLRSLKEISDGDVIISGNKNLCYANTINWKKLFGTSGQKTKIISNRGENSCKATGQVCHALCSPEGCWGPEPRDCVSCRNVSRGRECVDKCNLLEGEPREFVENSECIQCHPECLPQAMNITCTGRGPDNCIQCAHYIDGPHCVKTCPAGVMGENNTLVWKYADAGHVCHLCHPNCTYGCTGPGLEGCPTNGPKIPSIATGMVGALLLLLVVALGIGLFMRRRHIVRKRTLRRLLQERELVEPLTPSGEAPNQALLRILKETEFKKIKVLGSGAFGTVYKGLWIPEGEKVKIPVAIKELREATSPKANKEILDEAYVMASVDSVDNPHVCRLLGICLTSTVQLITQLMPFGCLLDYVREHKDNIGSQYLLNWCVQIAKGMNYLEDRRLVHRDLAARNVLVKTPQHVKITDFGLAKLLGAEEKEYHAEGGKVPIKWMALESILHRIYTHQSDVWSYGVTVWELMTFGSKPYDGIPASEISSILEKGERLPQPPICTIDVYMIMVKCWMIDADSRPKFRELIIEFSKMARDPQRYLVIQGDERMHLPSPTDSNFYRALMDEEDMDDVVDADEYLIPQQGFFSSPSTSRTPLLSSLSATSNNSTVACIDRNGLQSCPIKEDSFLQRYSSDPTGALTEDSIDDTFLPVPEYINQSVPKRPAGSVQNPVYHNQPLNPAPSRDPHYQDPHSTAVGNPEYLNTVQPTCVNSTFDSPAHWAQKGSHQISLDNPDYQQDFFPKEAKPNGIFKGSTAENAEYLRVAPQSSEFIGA", "experiment": "EGFR degradation assay (western blot), BaF3_SVD cells", "protocol": "(§2) A431 (EGFR_WT), NCl-H2073 (EGFR_WT), NCl-H292 (EGFR_WT), BaF3_YVAM (Her2_A775insYVAM), BaF3_SVD (EGFR_D770insSVD), BaF3_ASV (EGFR_A776inASV), or BaF3_DTC (EGFR_Exon19del/T790M/C797S) cells were seeded in a 24-well plate at a density of 4×10^5 cells per well for EGFR WT cells and 8× cells per well for EGFR or Her2 mutant cells, and the plates were incubated overnight. The cells were treated with the desired compounds for 24 h. The culture medium was removed, and 100 μL of RIPA buffer (Beyotime, P0013B) containing 1% Protease Inhibitor Cocktail (Bimake, B14001), 1% Phosphatase Inhibitor Cocktail 2 (Sigma, P5726), and 1% Phosphatase Inhibitor Cocktail 3 (Sigma, P0044) were added to lyse the cells. Then, the cell lysates were transferred to 1.5 mL microcentrifuge tubes and centrifuged at 12,000 rpm and 4° C. for 30 min. The supernatants were transferred into new tubes, and the protein concentration was determined using the BCA protein quantification method. All samples were diluted to the same concentration using RIPA buffer, loading buffer was added, samples were denatured, and 15 μg of protein per lane was loaded onto a SurePAGE 4-20% Bis-Tris gel. Samples were separated via electrophoresis in MOPS running buffer at 180 V for 100 min. Then, proteins were transferred onto PVDF membranes using the MiniBlot™ Electrophoretic Transfer Cell Device (Beyotime, E6050). The membrane was blocked using block buffer (LI-COR 927-60001) to prevent non-specific binding. The membrane was incubated with primary antibodies (1:500 dilution, EGFR-CST4405, 1:2000 dilution, Tubulin-ABclonal #AC021) at 4° C. overnight. The membrane was washed three times with 1× TBST buffer for 15 min each. The membrane was incubated with secondary antibodies IRDye 680RD Goat anti-Rabbit IgG Secondary Antibody (1:2000 dilution, LI-COR 926-68071) and IRDye 800CW Goat anti-Mouse IgG Secondary Antibody (1:2000 dilution, LI-COR 926-32210). […] Fluorescence was detected using the Odyssey CLx Imaging System, and the data were analyzed with Empiria Studio Software and GraphPad Prism 9. […]"}, "[4]": {"biological_target": "T3, BaF3_YVAM (Her2_A775insYVAM) (Homo sapiens, UniProt P04626, INS775YVMA)", "T3 construct": "expressed in transfected cells; host or cells: Ba/F3 (engineered)", "T3 sequence (P04626 with tags, fused parts or gaps INS775YVMA)": "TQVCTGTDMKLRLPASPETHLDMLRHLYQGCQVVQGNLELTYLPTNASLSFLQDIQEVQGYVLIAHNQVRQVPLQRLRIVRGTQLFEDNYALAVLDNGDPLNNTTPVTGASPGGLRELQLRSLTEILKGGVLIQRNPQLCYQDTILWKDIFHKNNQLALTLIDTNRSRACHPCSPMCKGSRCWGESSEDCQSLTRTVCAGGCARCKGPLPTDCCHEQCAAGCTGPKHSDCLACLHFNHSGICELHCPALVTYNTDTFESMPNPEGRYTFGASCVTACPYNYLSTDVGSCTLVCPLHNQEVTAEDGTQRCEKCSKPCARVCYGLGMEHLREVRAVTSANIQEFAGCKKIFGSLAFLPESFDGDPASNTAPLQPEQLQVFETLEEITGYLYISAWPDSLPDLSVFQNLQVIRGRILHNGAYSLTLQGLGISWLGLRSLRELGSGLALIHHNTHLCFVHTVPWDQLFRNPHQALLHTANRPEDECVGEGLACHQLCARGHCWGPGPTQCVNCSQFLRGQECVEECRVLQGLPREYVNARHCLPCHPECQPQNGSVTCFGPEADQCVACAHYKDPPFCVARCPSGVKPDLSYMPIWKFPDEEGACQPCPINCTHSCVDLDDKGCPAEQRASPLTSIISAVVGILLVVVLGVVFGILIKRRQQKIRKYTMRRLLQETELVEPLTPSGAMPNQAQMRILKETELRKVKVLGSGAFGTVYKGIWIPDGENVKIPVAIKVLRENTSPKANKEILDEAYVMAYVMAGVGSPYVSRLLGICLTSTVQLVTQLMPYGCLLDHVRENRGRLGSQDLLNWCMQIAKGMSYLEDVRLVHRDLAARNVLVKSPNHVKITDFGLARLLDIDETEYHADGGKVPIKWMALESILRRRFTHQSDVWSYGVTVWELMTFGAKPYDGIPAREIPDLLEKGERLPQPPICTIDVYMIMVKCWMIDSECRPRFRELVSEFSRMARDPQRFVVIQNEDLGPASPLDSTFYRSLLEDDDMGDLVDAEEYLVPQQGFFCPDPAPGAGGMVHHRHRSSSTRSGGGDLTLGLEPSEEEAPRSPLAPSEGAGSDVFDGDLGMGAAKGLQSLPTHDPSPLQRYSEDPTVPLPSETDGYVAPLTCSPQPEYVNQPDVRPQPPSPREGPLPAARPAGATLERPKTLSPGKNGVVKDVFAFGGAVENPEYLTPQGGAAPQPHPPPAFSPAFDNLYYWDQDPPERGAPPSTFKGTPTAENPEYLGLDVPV", "experiment": "EGFR degradation assay (western blot), BaF3_YVAM cells", "protocol": "as §2"}, "[5]": {"biological_target": "T4, NCl-H2073 (EGFR_WT) (Homo sapiens, UniProt P00533)", "T4 construct": "endogenous in cells; host or cells: A431, NCI-H2073, NCI-H292", "experiment": "EGFR degradation assay (western blot), NCl-H2073 cells", "conditions": "Table 5; NCI-H2073 cells (EGFR_WT), 24 h", "protocol": "as §2, with “min.” for “min. Then, proteins were transferred onto PVDF membranes using the MiniBlot™ Electrophoretic Transfer Cell Device (Beyotime, E6050). The membrane was blocked using block buffer (LI-COR 927-60001) to prevent non-specific binding. The membrane was incubated with primary antibodies (1:500 dilution, EGFR-CST4405, 1:2000 dilution, Tubulin-ABclonal #AC021) at 4° C. overnight. The membrane was washed three times with 1× TBST buffer for 15 min each. The membrane was incubated with secondary antibodies IRDye 680RD Goat anti-Rabbit IgG Secondary Antibody (1:2000 dilution, LI-COR 926-68071) and IRDye 800CW Goat anti-Mouse IgG Secondary Antibody (1:2000 dilution, LI-COR 926-32210).”"}, "[6]": {"biological_target": "T5, NCl-H292 (EGFR_WT) (Homo sapiens, UniProt P00533)", "T5 construct": "endogenous in cells; host or cells: A431, NCI-H2073, NCI-H292", "T5 sequence (P00533 25-1210)": "as the sequence (P00533 25-1210) above", "experiment": "EGFR degradation assay (western blot), NCl-H292 cells", "conditions": "Table 5; NCI-H292 cells (EGFR_WT), 24 h", "protocol": "as §2, with “min.” for “min. Then, proteins were transferred onto PVDF membranes using the MiniBlot™ Electrophoretic Transfer Cell Device (Beyotime, E6050). The membrane was blocked using block buffer (LI-COR 927-60001) to prevent non-specific binding. The membrane was incubated with primary antibodies (1:500 dilution, EGFR-CST4405, 1:2000 dilution, Tubulin-ABclonal #AC021) at 4° C. overnight. The membrane was washed three times with 1× TBST buffer for 15 min each. The membrane was incubated with secondary antibodies IRDye 680RD Goat anti-Rabbit IgG Secondary Antibody (1:2000 dilution, LI-COR 926-68071) and IRDye 800CW Goat anti-Mouse IgG Secondary Antibody (1:2000 dilution, LI-COR 926-32210).”"}, "[7]": {"tested_on": "A431", "experiment": "Cell growth inhibition assay (CellTiter-Glo), A431", "conditions": "Homo sapiens, A431 cells", "procedure,_shortened": "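This growth inhibition assay reports GI50, the compound concentration producing 50% inhibition of cell growth relative to DMSO. Seeded cells (90 μL medium per well, 96-well Corning 3610 plates, overnight at 37° C.) received 10 μL of compound diluted 1:100 from a 1,000× DMSO stock. Luminescence was measured on Envision (PerkinElmer) and analyzed in GraphPad Prism 9.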"}, "[8]": {"tested_on": "BaF3_DTC", "experiment": "Cell growth inhibition assay (CellTiter-Glo), BaF3_DTC"}, "[9]": {"tested_on": "BaF3_ASV", "experiment": "Cell growth inhibition assay (CellTiter-Glo), BaF3_ASV", "conditions": "for GI50: BaF3_ASV cells"}, "[10]": {"tested_on": "BaF3_YVMA", "experiment": "Cell growth inhibition assay (CellTiter-Glo), BaF3_YVMA", "protocol": "(§3) Cells were seeded in a 96-well plate (Corning 3610) with 90 μL of culture medium per well, and plates were incubated at 37° C. overnight. A 1,000× DMSO stock solution of the desired compound was prepared the following day. A compound dilution plate was prepared by diluting the stock solution 1:100 in the corresponding cell culture medium, 10 μL of the diluted compound solution was added to each 96-well plate well containing the seeded cells. […] The content of the wells was mixed by shaking continuously for 10 min, and luminescence was measured using Envision (PerkinElmer). The data were analyzed with GraphPad Prism 9 (see FIG. 50).\n(§4) Table 6, Table 7, and Table 8 list the cell growth inhibition results, where Gls0 represents the compound concentration to cause 50% cell growth inhibition in comparison with DMSO."}, "[11]": {"tested_on": "NCI-H292", "experiment": "Cell growth inhibition assay (CellTiter-Glo), NCI-H292", "conditions": "Homo sapiens; Table 7; NCI-H292 cells; head prints 24 h", "protocol": "as §3, §4"}, "[12]": {"conditions": "BaF3_YVMA, comparison with Compound A, in words"}}, "note": "Where two headings read alike, the source gives them in different places."}
{"smiles": "CCc1cc(Nc2ncc(Br)c(Nc3ccc4nccnc4c3NS(C)(=O)=O)n2)c(OC)cc1N1CCC(N2CCN(CCc3cccc4c3n(CC)c(=O)n4C3CCC(=O)NC3=O)CC2)CC1", "note": "(centres unmarked) [Compound 11, N-(6-((5-bromo-2-((4-(4-(4-(2-(1-(2,6-dioxopiperidin-3-yl)-3-ethyl-2-oxo-2,3-dihydro-1H-benzo[d]imidazol-4-yl)ethyl)piperazin-1-yl)piperidin-1-yl)-5-ethyl-2-methoxyphenyl)amino)pyrimidin-4-yl)amino)quinoxalin-5-yl)methanesulfonamide]", "values": [{"measurement": "DC50", "setting": "[1]; Table 5, 24 h, read-out: DC50 (nM), 24 h, A431", "result": "> 1000", "unit": "nM"}, {"measurement": "DC50", "setting": "[1]; compounds 24 h, western blot, read-out: A431 DC50", "result": "> 1000", "unit": "nM"}, {"measurement": "DC50", "setting": "[2]; BaF3_DTC cells (EGFR_Exon19del/T790M/C797S), compounds 24 h, western blot, read-out: BaF3_DTC DC50", "result": 1.2, "unit": "nM"}, {"measurement": "DC50", "setting": "[2]; Table 5, BaF3_Del19/T790M/C797S cells, 24 h, read-out: DC50 (nM), 24 h, BaF3_Del19/T790M/C797S", "result": 1.2, "unit": "nM"}, {"measurement": "Potency in degrading EGFR exon20 insertion mutant form compared with Compound A (BaF3_SVD)", "setting": "[3]; BaF3_SVD, comparison with Compound A, in words", "result": "significantly increased potency"}, {"measurement": "DC50", "setting": "[3]; Table 5, BaF3_SVD cells, 24 h", "result": 21.6, "unit": "nM"}, {"measurement": "Potency in degrading Her2 mutant form compared with Compound A (BaF3_YVMA)", "setting": "[4]; [12]", "result": "significantly increased potency"}, {"measurement": "DC50", "setting": "[4]; Table 5, BaF3_YVMA cells (mutant Her2), 24 h", "result": 33.3, "unit": "nM"}, {"measurement": "DC50", "setting": "[5]", "result": "> 1000", "unit": "nM"}, {"measurement": "DC50", "setting": "[6]", "result": "> 1000", "unit": "nM"}, {"measurement": "GI50", "setting": "[7]; A-431, 24 h, Table 7, head prints 24 h, read-out: GI50 (nM), 24 h, A431", "result": 2500, "unit": "nM"}, {"measurement": "GI50", "setting": "[7]; A-431, 72 h, Table 6, three days, CellTiter-Glo, read-out: A431 GI50", "result": "> 1000", "unit": "nM"}, {"measurement": "GI50", "setting": "[8]; 72 h, Table 6, BaF3_DTC cells, three days, CellTiter-Glo, read-out: BaF3_DTC GI50", "result": 6.37, "unit": "nM"}, {"measurement": "GI50", "setting": "[8]; Table 7, BaF3_Del19/T790M/C797S cells, head prints 24 h, read-out: GI50 (nM), 24 h, BaF3_Del19/T790M/C797S", "result": 6.37, "unit": "nM"}, {"measurement": "GI50", "setting": "[9]; 72 h, Table 6, three days, CellTiter-Glo, read-out: BaF3_ASV GI50", "result": 75.2, "unit": "nM"}, {"measurement": "Potency in cell growth inhibition compared with Compound A (BaF3_ASV)", "setting": "[9]; BaF3_ASV, comparison with Compound A, in words", "result": "significantly increased potency"}, {"measurement": "GI50", "setting": "[9]; Table 7, head prints 24 h, read-out: GI50 (nM), 24 h, BaF3_ASV", "result": 75.2, "unit": "nM"}, {"measurement": "Potency in cell growth inhibition compared with Compound A (BaF3_YVMA)", "setting": "[10]; [12]", "result": "significantly increased potency"}, {"measurement": "GI50", "setting": "[10]; Table 7, BaF3_YVMA cells, head prints 24 h", "result": 188, "unit": "nM"}, {"measurement": "GI50", "setting": "[11]", "result": 436, "unit": "nM"}]}
